The values below come from US20230390189A1, “OCULAR IMPLANT CONTAINING AN ACTIVE INGREDIENT” (OCULAR THERAPEUTIX, INC., priority 2020, published 2023).

For series [1] the following is noted: cited from earlier work; for t1/2 in the human eye: in vivo.
The nature of series [2]: Solubility of axitinib. It counts as physicochemical.
In series [3] the test system is VEGF-induced vascular leakage. The series can be described thus: VEGF challenge, vascular leakage scored by fluorescein angiography. It counts as in vivo, Dutch belted rabbits. To be noted: 1.25 mg Avastin alone (group 3); similar degree as control.
For series [4] the following is noted: 1.25 mg intravitreal; cited from earlier work.

As for `CNC(=O)c1ccccc1Sc1ccc2c(/C=C/c3ccccn3)n[nH]c2c1` [axitinib, N-methyl-2-[3-((E)-2-pyridin-2-yl-vinyl)-1H-indazol-6-ylsulfanyl]-benzamide], in series [1] (patients, oral (Rugo et al.)), the “Clearance half-life (t1/2)” value is “a few hours”. For the same molecule, the “Solubility of axitinib in 25% ethanol/75% water mix (v/v)” value in series [2] was “approximately 19 μg/mL”. Turning to “Avastin: anti-VEGF therapeutic, 1.25 mg intravitreal”, the “Vascular leakage after VEGF challenge, late” value in series [3] is recorded as “after 3 months vascular leakage re-occurred”. Further, in series [4], the Half-life in rabbits is 158 h. For the molecule “aflibercept: anti-VEGF agent, large molecule”, the “t1/2 in the human eye” value in series [1] was “several days”. Turning to “ranibizumab: anti-VEGF agent, large molecule”, in series [1], the “t1/2 in the human eye” value was “several days”.
